Columns and labels:
[1] = tested on: liver cell (galactosamine-induced toxicity); assay: Protection effect against galactosamine-induced toxicity of liver cell (GPT activity, relative protection); format: cell-based, male Wister rats; details: 1.5 mM galactosamine, 14 h, healthy liver cell = 100%, toxicity = 0%; for Relative liver cell protection (%) at 5 µg/mL / Relative liver cell protection (%) at 50 µg/mL: Rattus norvegicus
Source text: To investigate the protection effect of the compounds of the formula 1 of this invention, i. e. 2-oxoasiatic acid, 2-methylasiatic acid, methyl 2α-acetoxyurs-12-en-23-al-3-on-28-oate, tetrahydropyranyl 3β,23-diacetoxyurs-12-en-28-oate, ethoxymethyl 2α-hydroxy-3β,23-isopropylidendioxyurs-12-en-28-oate, methyl 2,3-β-epoxy-12-en-23-carbomethoxyurs-28-oate, methyl 2,3-β-epoxy-12-en-23-benzamidours-28-oate, 1-ethoxyethyl asiatate and 2',3',4',6'-tetra-O-acetylglucosyl 2,3,23-tri-O-acetylurs-28-oate, against galactosamine-induced toxicity of liver cell, the following experiment was performed.
(§1) As experimental animals, male Wister rats weighing between 150~200 g were used. All rats were fasted during 18~24 h, and then the isolation of liver cells was performed by using the two-step collagenase flow-through method [D. M. Crisp and C. I. Pogson, Biochem., 126, 1009 (1972)], which is a form that the Berry & Friend method [M. N. Berry and D. S. Friend, J. Cell, Biol., 43, 5006 (1969)] is a little modified.
(§2) The isolated liver cells were incubated in a normal incubation medium for 1.5 h, and then more incubated in 1.5 mM galactosamine-containing incubation medium for 14 h to induce liver cells to get into the toxicity of galactosamine [Y. Kris, M. Tohkin and H. Hikino, J. Nat. Prod., 46, 841 (1983)].
(§3) These liver cells getting into toxicity induced by said methods were incubated separately in the incubation mediums containing said compounds of 5 μg/ml and 50 μg/ml. Then, withdrawing the incubation medium, the activity of glutamic pyruvic transaminase (GPT) was determined by the Reitman-Frankel method [S. Reitman and S. Frankel, Am, J. Cli. Pathol., 28, 56 (1957)]. The GPT value of healthy liver cell was defined as 100%, and that of liver cell getting into toxicity induced by said methods was defined as 0%. At the basis of said definition, the GPT values of liver cells recovered from galactosamine-induced toxicity by the compounds were converted into relative protections (%) to show the protection effect of liver cell against the toxicity by the compounds.

[2] = tested on: liver cell (carbon tetrachloride-induced toxicity); assay: Protection effect against carbon tetrachloride-induced toxicity of liver cell (GPT activity, relative protection); format: cell-based, male Wister rats; details: 10 mM carbon tetrachloride, 1.5 h; for Relative liver cell protection at 5 µg/mL / Relative liver cell protection at 50 µg/mL: Rattus norvegicus
Method: as §1, §3
To investigate the protection effect of the compounds of the formula 1 of this invention against carbon tetrachloride-induced toxicity of liver cell, the following experiment was performed.
(§4) The experiment was performed in the same manner as in Experimental example 1, except that carbon tetrachloride was used by following method to induce liver cells to get into the toxicity.
(§5) The isolated liver cells were incubated in a normal incubation medium for 24 h, and then more incubated in 10 mM carbon tetrachloride-containing incubation medium for 1.5 h to induce liver cells to get into the toxicity of carbon tetrachloride [Y. Kiso, Y. Suzuki and H. Hikino, Planta. Med., 49, 222 (1983)].

[3] = tested on: liver cell (galactosamine-induced toxicity); assay: Concentration dependency of protection effect against galactosamine-induced toxicity of liver cell; format: cell-based, male Wister rats; details: for Relative liver cell protection (%) at 1 µM / Relative liver cell protection (%) at 10 µM / Relative liver cell protection (%) at 50 µM / Relative liver cell protection (%) at 100 µM / Relative liver cell protection (%) at 200 µM: Rattus norvegicus
Method: as §1, §2, §3
To investigate concentration dependency of the protection effect of the compounds of the formula 1 of this invention, i. e. 2-oxoasiatic acid, 2-methylasiatic acid and methyl 2α-acetoxyurs-12-en-23-al-3-on-28-oate, against galactosamine-induced toxicity of liver cell, the experiment was performed in the same manner as in Experimental example 1, except that the compound concentrations tested were 1, 10, 50, 100 and 200 μM.

male ICR mice = assay: Safety study through toxicity test in mice by peritoneal injection
Method: (§6) Administering 2-oxoasiatic acid of various concentrations to male ICR mice weighing between 20~25 g by peritoneal injection, the toxicity of 2oxoasiatic acid was tested.

in vivo = details: mouse, in vivo, ip
Method: as §6

[4] = tested on: liver cell (carbon tetrachloride-induced toxicity); assay: Concentration dependency of protection effect of liver cell against carbon tetrachloride-induced toxicity; format: cell-based, male Wister rats
Method: as §1, §3, §4, §5
To investigate the concentration dependency of the protection effect of the compounds of the formula 1 of this invention, i. e. 2-oxoasiatic acid, against carbon tetrachloride-induced toxicity of liver cell, the experiment was performed in the same manner as in Experimental example 2, except that the compound concentrations tested were 1, 10, 50, 100 and 200 μM.

[5] = 5 μg/ml of compound concentration
[6] = 50 μg/ml of compound concentration

Compound	Relative liver cell protection (%) [1, 5] [%]	Relative liver cell protection (%) [1, 6] [%]	Relative liver cell protection (%) [2, 5] [%]	Relative liver cell protection (%) [2, 6] [%]	concentration dependency of protection effect ([3]; 100 and 200 μM)	concentration dependency of protection effect ([3]; range of 1~50 μM)	Relative liver cell protection (%) at 5 µg/mL [1, 5] [%]	Relative liver cell protection (%) at 50 µg/mL [1, 6] [%]	Relative liver cell protection at 5 µg/mL [2, 5] [%]	Relative liver cell protection at 50 µg/mL [2, 6] [%]	also measured
2-methylasiatic acid	43	62	29	9	the protection effects of them rapidly decreased	the greater were the protection effects	–	–	–	–	Relative liver cell protection (%) ([3]; compound 1 μM): 31.9%; Relative liver cell protection (%) ([3]; compound 10 μM): 40.3%; Relative liver cell protection (%) ([3]; compound 50 μM): 58.2%; Relative liver cell protection (%) ([3]; compound 100 μM): 43.9%; Relative liver cell protection (%) ([3]; compound 200 μM): 0.0%
2',3',4',6'-tetra-O-acetylglucosyl 2,3,23-tri-O-acetylurs-28-oate	79	21	39	34	–	–	–	–	–	–	–
methyl 2,3-β-epoxy-12-en-23-benzamidours-28-oate	38	40	0	23	–	–	–	–	–	–	–
COC(=O)[C@]12CC[C@@H](C)[C@H](C)[C@H]1C1=CC[C@@H]3[C@@]4(C)C[C@@H](OC(C)=O)C(=O)[C@@](C)(C=O)[C@@H]4CC[C@@]3(C)[C@]1(C)CC2 [methyl 2α-acetoxyurs-12-en-23-al-3-on-28-oate]	–	–	–	–	the protection effects of them rapidly decreased	the greater were the protection effects	42	80	21	0	Relative liver cell protection (%) at 1 µM ([3]; compound 1 μM): 27.4%; Relative liver cell protection (%) at 10 µM ([3]; compound 10 μM): 39%; Relative liver cell protection (%) at 50 µM ([3]; compound 50 μM): 60%; Relative liver cell protection (%) at 100 µM ([3]; compound 100 μM): 33.1%; Relative liver cell protection (%) at 200 µM ([3]; compound 200 μM): 0%
CC(=O)OC[C@@]1(C)[C@@H]2CC[C@]3(C)[C@H](CC=C4[C@@H]5[C@@H](C)[C@H](C)CC[C@]5(C(=O)OC5CCCCO5)CC[C@]43C)[C@@]2(C)CC[C@@H]1OC(C)=O (stereo partly drawn) [tetrahydropyranyl 3β,23-diacetoxyurs-12-en-28-oate]	–	–	–	–	–	–	58	66	42	30	–
CCOCOC(=O)[C@]12CC[C@@H](C)[C@H](C)[C@H]1C1=CC[C@@H]3[C@@]4(C)C[C@@H](O)[C@@H]5OC(C)(C)OC[C@@]5(C)[C@@H]4CC[C@@]3(C)[C@]1(C)CC2 [ethoxymethyl 2α-hydroxy-3β,23-isopropylidendioxyurs-12-en-28-oate]	–	–	–	–	–	–	66	45	15	5	–
C[C@H]1[C@H](C)CC[C@]2(C(=O)O)CC[C@]3(C)C(=CC[C@@H]4[C@@]5(C)CC(=O)[C@H](O)[C@@](C)(CO)[C@@H]5CC[C@]43C)[C@H]12 [2-Oxoasiatic acid, 2-oxoasiatic acid]	–	–	–	–	the protection effects of them rapidly decreased	the greater were the protection effects	15	62	30	44	opisthotonus (male ICR mice; male ICR mice, peritoneal injection, fatal dose): opisthotonus was showed at a fatal dose; body weight of surviving mice (male ICR mice; mouse, in vivo): did not change; motor activity (male ICR mice; mouse, in vivo): motor activity was decreased dose-dependently; pilo-erection, tachypnea and convulsion (male ICR mice; mouse, in vivo): induced dose-dependently; recovery of surviving mice (male ICR mice; mouse, in vivo): rapid recovery; type of toxicity (male ICR mice; mouse, in vivo): typical toxicity of central nervous system; LD50 (in vivo): 750 mg/kg; relative liver cell protection at 1 µM ([4]; Rattus norvegicus, compound 1 μM): 1.6%; relative liver cell protection at 10 µM ([4]; Rattus norvegicus, compound 10 μM): 5%; relative liver cell protection at 50 µM ([4]; Rattus norvegicus, compound 50 μM): 3.3%; relative liver cell protection at 100 µM ([4]; Rattus norvegicus, compound 100 μM): 30.9%; relative liver cell protection at 200 µM ([4]; Rattus norvegicus, compound 200 μM): 48.1%; concentration dependency of protection effect ([4]; concentration range of 1~200 μM): the greater was the protection effects; Relative liver cell protection (%) at 1 µM ([3]; compound 1 μM): 29.8%; Relative liver cell protection (%) at 10 µM ([3]; compound 10 μM): 43.2%; Relative liver cell protection (%) at 50 µM ([3]; compound 50 μM): 50.4%; Relative liver cell protection (%) at 100 µM ([3]; compound 100 μM): 25.3%; Relative liver cell protection (%) at 200 µM ([3]; compound 200 μM): 8.5%
CCOC(C)OC(=O)[C@]12CC[C@@H](C)[C@H](C)[C@H]1C1=CC[C@@H]3[C@@]4(C)C[C@@H](O)[C@H](O)[C@@](C)(CO)[C@@H]4CC[C@@]3(C)[C@]1(C)CC2 (stereo partly shown) [1-Ethoxyethyl asiatate, 1-ethoxyethyl asiatate]	–	–	–	–	–	–	66	0	8	7	–
methyl 2,3-β-epoxy-12-en-23-carbomethoxyurs-28-oate	26	53	0	0	–	–	–	–	–	–	–

— US6274559A, “Liver protection or treatment agents comprising asiatic acid derivatives as the active component” (Dong Kook Pharmaceutical Co., Ltd., priority 1997, dated 2001)
